What all share (assay type): physicochemical
Series [1] can be described thus: Flowability and handling of the crystals. Conditions: crystals in the form of plates.
Series [2] in a line: Storage stability of the crystalline form. Conditions: stored at ambient temperature.
Series [3] can be described thus: Temperature range of stability of the polymorph (DSC discussion). Conditions: form only stable above this temperature. The procedure: DSC curves were recorded with a DSC 7 system (Perkin Elmer, Norwalk, Conn., USA) using the Pyris 2.0. software. Samples of approximately 2 mg were weighted into A1 pans with perforated cover. Dry nitrogen was used as purge gas. X-axis is the temperature in ° C., Y-axis gives dH/dT (endo up).
Form I is a crystalline form which melts at about 180° C. and is only stable at temperatures above 130° C.

As to `C[C@@H](NCCCc1cccc(C(F)(F)F)c1)c1cccc2ccccc12.Cl`, in series [1], the flowability characteristics entry is “favourable flowability characteristics”.

For the compound `C[C@@H](NCCCc1cccc(C(F)(F)F)c1)c1cccc2ccccc12.Cl` [Form III of Cinacalcet hydrochloride], the stable when stored in series [2] is recorded as ≥ 3 months.

Take `C[C@@H](NCCCc1cccc(C(F)(F)F)c1)c1cccc2ccccc12.Cl` [Form I]: the “temperature at which the form is stable” value in series [3] is “above 130 °C”.

These data come from patent publication US20090197970A1, “CRYSTALLINE FORM OF CINACALCET” (Sandoz AG, priority 2006, published 2009).
